Source: PMC11757143, “Generation and characterization of OX40-ligand fusion protein that agonizes OX40 on T-Lymphocytes” (Frontiers in Immunology, 2025)

How the values were obtained:
[1] = test system: antigen-specific T cell responses of draining lymph node cells; experiment: Antigen recall responses of dLN cells from TNP-KLH/CFA-immunized mice (cytokine ELISA, MTT proliferation); assay type: in vivo, C57BL/6 mice; details: 20 µg i.p. on days 1 and 3, TNP-KLH/CFA day 0, dLN day 7, KLH recall 3 days
Source text: The following reagents were used for the measurement of cytokines from T cells: anti-IL-2 (JES6-1A12, 503701, BioLegend, San Diego, CA, U.S.A.) capture antibody, biotin-anti-IL-2 (JES6-5H4, 503803, BioLegend) detection antibody, anti-IFN-γ (R4-6A2, 505702, BioLegend) capture antibody, biotin-anti-IFN-γ (XMG1.2, 505804, BioLegend) detection antibody, anti-IL-4 (11B11, 504101, BioLegend) capture antibody, biotin-anti-IL-4 (BVD6-24G2, 504201, BioLegend) detection antibody, anti-IL-17A (TC11-18H10.1, 506901, BioLegend) capture antibody, biotin-anti-IL-17A (TC11-8H4, 507001, BioLegend) detection antibody, HRP streptavidin (405210, BioLegend), and 3,3’,5,5’-tetramethylbenzidine (TMB, 421101, BioLegend). The absorbance was measured at 450 nm or 620 nm using a FilterMax F5 (Molecular Devices, San Jose, CA, U.S.A.).
Groups of C57BL/6 mice from both male and female mice aged between 5 and 15 weeks were immunized subcutaneously at the footpad with 100 µg of 2,4,6-trinitrophenyl-conjugated keyhole limpet hemocyanin (TNP-KLH) emulsified in complete Freund’s adjuvant (CFA) (F5881, Merck) on day 0. Recombinant proteins in PBS were injected intraperitoneally on days 1 and 3. […] Cell viability on day 3 was assessed with a 3-(4,5-dimethylthiazol-2-yl)-2,5-diphenyl-tetrazolium (MTT) (M2128, Merck) assay.

OX40-Fc = target: T1, OX40-Fc (Mus musculus, UniProt P47741); parameters: method as in PMID 36450532, PMID 37371066; details: previous studies; ref [23], [24]; cited from earlier work
T1 construct: made in house
T1 sequence (P47741 20-211 limits assumed): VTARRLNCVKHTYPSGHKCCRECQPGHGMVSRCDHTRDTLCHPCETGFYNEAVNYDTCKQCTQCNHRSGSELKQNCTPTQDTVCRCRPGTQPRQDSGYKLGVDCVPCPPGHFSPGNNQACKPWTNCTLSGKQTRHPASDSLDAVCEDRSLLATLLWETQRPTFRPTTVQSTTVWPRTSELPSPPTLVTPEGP

| Substance | antigen-specific T cell responses (recall IFN-γ, IL-17, IL-4 production and proliferation of dLN cells) [1] | specific interaction with OX40 (OX40-Fc) |
| --- | --- | --- |
| Fc-MBL-OX40L: Fusion protein: human IgG1 Fc (hinge, CH2, CH3), PA, MBL collagen-like domain, OX40L THD | failed to effectively stimulate in vivo T cell responses | – |
| MBL-OX40L: Fusion protein: PA peptide tag, collagen-like domain of mannose-binding lectin, extracellular TNF homology domain of mouse OX40L | – | specifically interact with OX40 |
